This is an account of results in PubChem BioAssay AID602486 (The Scripps Research Institute Molecular Screening Center, 2012).

Each structure is given as a SMILES string. Activity calls are given as the source filed them. How the calls were made is not given here.

The assay has as its target 3C-like protease (3CLpro), SARS coronavirus (filed as Infectious bronchitis virus). Put plainly: PubChem AID 602486. Conditions: recombinant 3CLpro, fluorogenic peptide cleavage.

As for `CC(=O)Nc1ccc(N(C(=O)Cn2cc(-c3ccccc3)nn2)C(C(=O)NC(C)(C)C)c2ccsc2)cc1` (stereo unspecified), the IC50 entry was “inactive”.
